Key:
[1] = Retention in blood: carotenoid concentration in serum of mice (Test Example 1); format: in vivo, ICR strain mice; settings: 50 mg/kg body weight orally once daily for 10 days, blood 4 hours after last administration
From the text: Adonixanthin was used as an asymmetric carotenoid, and astaxanthin was used as a symmetric carotenoid. As experimental animals, ICR strain mice were used. Fourteen (14) mice were used, and 4 mice each were assigned to the adonixanthin-administration group and the astaxanthin-administration group, and 6 mice were assigned to the control administration group. In grouping, each group was constituted so that the mean body weight in each group was as uniform as possible based on the body weight on the day before initiation of administration. For each experimental group, blood was collected before initiation of administration of dosing substances. […] Each of the concentration of adonixanthin in serum of blood collected from the adonixanthin-administration group (concentration relative to 1 mL of serum) and the concentration of astaxanthin in serum of blood collected from the astaxanthin-administration group (concentration relative to 1 mL of serum) was measured. […] In HPLC, the concentration of adonixanthin was measured as a concentration of each of the cis isomer and the trans isomer. In HPLC, the concentration of astaxanthin was measured as a concentration of each of the cis isomer and the trans isomer. […] From serum collected from the control administration group, neither adonixanthin nor astaxanthin were detected.

[2] = Proportion of trans carotenoid in serum and each organ of mice (Test Example 2); format: in vivo, ICR strain mice; settings: mice of Test Example 1, 50 mg/kg orally once daily for 10 days
Method: In HPLC, the concentration of adonixanthin was measured as a concentration of each of the cis isomer and the trans isomer. In HPLC, the concentration of astaxanthin was measured as a concentration of each of the cis isomer and the trans isomer. Regarding each of adonixanthin and astaxanthin in serum and each organ of mice of Test Example 1, the proportion of the trans isomer was confirmed.

[3] = Retention in blood: carotenoid concentration in serum of cynomolgus monkeys (Test Example 3); format: in vivo; settings: cynomolgus monkey, 50 mg/kg intragastric once daily for 10 days, serum 4 hours after last administration
Method: As experimental animals, cynomolgus monkeys were used. Two cynomolgus monkeys were used, and an adonixanthin dosing solution was administered to one monkey (adonixanthin-administering monkey), while an astaxanthin dosing solution was administered to the other monkey (astaxanthin-administering monkey). As the dosing solutions, the dosing solutions obtained in Preparation Example 2 were used, and the dosing solutions at a dose such that the dose of adonixanthin or astaxanthin was 50 mg/kg body weight were administered once daily for 10 days (the day of initiation of administration of the dosing solutions was defined as day 1). […] The dose in each administration was calculated based on the latest body weight at each administration time point (the body weight was measured on the day of initiation of acclimation, the day of end of acclimation, the day of initiation of administration, and before administration on day 8 of administration using an electric balance (HP-40K or GP-40K, both of which are manufactured by A&D Company, Limited)). […] Regarding each serum 4 hours after the last administration of the dosing solutions, each of the concentration of adonixanthin in serum collected from the adonixanthin-administering monkey and the concentration of astaxanthin in serum collected from the astaxanthin-administering monkey was measured. […]

| Compound | Concentration in serum (total of cis isomer and trans isomer), FIG. 1 [1] | Proportion of the trans isomer in each organ versus the cis isomer, FIG. 2 [2] | Concentration in serum, FIG. 3 [3] |
| --- | --- | --- | --- |
| CC1=C(/C=C/C(C)=C/C=C/C(C)=C/C=C/C=C(C)/C=C/C=C(C)/C=C/C2=C(C)C(=O)C(O)CC2(C)C)C(C)(C)CC(O)C1=O (stereo not drawn) [astaxanthin, 3,3′-dihydroxy-β,β-carotene-4,4′-dione] | exist in serum at a high concentration | higher than the proportion of the cis isomer | exist in serum at a high concentration |
| CC1=C(/C=C/C(C)=C/C=C/C(C)=C/C=C/C=C(C)/C=C/C=C(C)/C=C/C2=C(C)C(=O)C(O)CC2(C)C)C(C)(C)CC(O)C1 (stereo not drawn) [adonixanthin, 3,3′-dihydroxy-β,β-caroten-4-one] | especially likely to be retained in blood | especially higher than the proportion of the cis isomer | especially likely to be retained in blood |
